From US6946260B2, “Allergen/inflammatory testing and diagnosis” (Euro/DPC Limited, priority 1992, dated 2005)

Tests used:
Format in all cases: cell-based, rat
[1] = system: RBL-2H3 cell-line transfected with the α-chain of the human high-affinity receptor for IgE; assay: Attenuation of antigen- or irritant-induced mediator release by antagonists; conditions: competing sugars; lectins of e.g. pollen or bacterial and viral agglutinins
Experimental: For example, where a composition was being tested or developed for its ability to attenuate an IgE mediated response such as asthma or hay fever, antigen specific IgE would be present, for example, in the form of human serum.
Following incubation, cells were washed (2×1 ml) with buffer A (120 mM NaC1, 5 mM KC1, 25 mM PIPES, 1 mM CaC12, 0.04 mM MgC12, 5.6 mM glucose, 0.1% BSA, pH7.4) and pre-incubated for a further period of 10 minutes at 37 degrees C. with buffer A (0.5 ml) which was removed before challenge with buffer A (0.4 ml) supplemented with a pre-selected antigen (in an amount as afore described) and the therapeutic composition or the antagonist.
(§1) For the determination of antigen induced [^3H]-5HT release, the well was incubated at 37 degrees C. for 15 minutes, cooled on ice, supernatant was then removed and spun at 2000 g (1 minute) before liquid scintillation counting (2 minutes). The percentage release of [^3H]-5HT was calculated by the method of Siraganian and Hook.

[2] = system: RBL-2H3 cell-line transfected with the α-chain of the human high-affinity receptor for IgE; assay: Irritant/antigen-induced mediator release in the absence of IgE sensitization; conditions: control, no sensitizing serum; same antigen concentrations
Experimental: Parent RBL-2H3 cells or clones transfected with the α-chain of the human high-affinity receptor complex were plated out in 24-well plates at 2×10^5 cells/well as described previously in the citations referred to on Page 2 of this application. For the determination of antigen-induced mediator release, plates were incubated at 37 degrees C. for 15 minutes, cooled on ice, the supernatant was removed, spun at […] (1 minute) before liquid scintillation counting to measure [^3H]-5-hydroxytryptamine (5-HT release. The ImmunoTech histamine enzyme immunoassay was used to quantify histamine release, and hydrolysis of toluene sulphonyl methyl ester was employed to monitor protease release (please see Wilson, A. P. M., Pullar, C. E., Camp, A. M., and Helm B. A., Human IgE Mediates Stimulus Secretion Coupling in Rat Basophilic Leukemia Cells Transfected with the Alpha Chain of the Human High-Affinity Receptor, European Journal of Immunology, 23:240-244, 1993, or alternatively, please see other references cited on Page 2 of this application). […]
For the determination of irritant or antigen induced [^3H]-5HT release, the well was incubated at 37 degrees C. for 15 minutes, cooled in ice, supernatant was then removed and spun at 2000 g (1 minute) before liquid scintillation counting (2 minutes). The percentage release of [^3H]-5HT was calculated by the method of Siraganian and Hook. […]

[3] = system: RBL-2H3 (H 2/2/C) transfectants; assay: Antigen-induced mediator release after sensitization with serum from a bee-venom-allergic individual; conditions: cells sensitized with serum (1:10) of bee venom sensitive individual (EC), increasing antigen concentrations
Experimental: Triggering of RBL-2H3 (H 2/2/C) transfectants following sensitization with serum from a bee-venom-allergic individual. Cells were incubated with the serum (1:10), Dex (10-^6M) and [^3H]-5HT. After washing and pre-incubation the cells were challenged with a range of concentrations of purified bee venom phospholipase A2 (PLA2). The percentage release of [^3H]-5HT (●) and β-hexosaminidase (∘) were determined; data were corrected for background and normalized with respect to values obtained for triggering with hIgE-DNP (1 μg/mL and NIP-HSA (100 ng/mL).
Transfected RBL-2H3 clones were incubated for 24 hours with or without serum (1:10 dilution) from a bee venom sensitive individual (EC) in the presence of 10-^6M dexamethazone and [^3H]-5-hydroxytryptamine. […]
[^3H]-5-Hydroxytyptamine was measured after a 15 minutes incubation period, release was corrected for background and expressed relative to the total [^3H]-5-hydroxytryptamine incorporated. […]
as §1, with “Hook (Manual of Clinical Immunology of the American Society for Microbiology Washington D.C., 1980 Page 808).” for “Hook.”

| Compound | inhibition of triggering of mast cells and basophils by lectins [1] | other results |
| --- | --- | --- |
| CC(=O)N[C@H]1[C@H]([C@H](O)[C@H](O)CO)OC(O)(C(=O)O)C[C@@H]1O (stereo partly drawn) [N-acetyl neuraminic acid] | can inhibit the triggering of mast cells and basophils | – |
| CC(=O)N[C@H]1C(O)O[C@H](CO)[C@@H](O)[C@@H]1O (stereo partly drawn) [N-acetyl-D-glucosamin] | can inhibit the triggering of mast cells and basophils | – |
| C[C@@H]1O[C@@H](O)[C@@H](O)[C@H](O)[C@@H]1O [a-L-fucose] | can inhibit the triggering of mast cells and basophils | – |
| CO[C@H]1O[C@H](CO)[C@@H](O)[C@H](O)[C@@H]1O [a-methyl-mannoside] | can inhibit the triggering of mast cells and basophils | – |
| OC[C@H]1O[C@@H](O)[C@H](O)[C@@H](O)[C@H]1O [b-D-galactose] | can inhibit the triggering of mast cells and basophils | – |
| OC[C@H]1O[C@@H](O[C@H]2[C@H](O)[C@@H](O)C(O)O[C@@H]2CO)[C@H](O)[C@@H](O)[C@H]1O (stereo partly drawn) [lactose] | can inhibit the triggering of mast cells and basophils | – |
| bee venom phospholipase A2 | – | mediator release dose response in non-sensitized cells [2]: mediator release increased in response to antigen concentration; mediator release ([3H]-5HT, β-hexosaminidase) dose response in sensitized cells [3]: typical bell-shaped dose response pattern; mediator release ([3H]-5HT, β-hexosaminidase) dose response in sensitized cells ([3]; listed as bee venom PLA2): typical bell-shaped dose response curve |
